Experiments:
[1] = system: ATM kinase-dependent signaling pathway (Kap1-S824 phosphorylation); test: Western blot of phosphorylated Kap1 (ATM substrate); assay type: cell-based, mouse
Text: Having established the robust ADDIT assay that can measure telomere elongation over one cell cycle, it was desired to examine whether the ATM kinase activity is required for telomere elongation. Two different methods were used to inhibit ATM: the ATM specific inhibitor KU55933 and siRNA knockdown. To confirm the inhibition of ATM kinase activity, the phosphorylation level of ATM substrate Kap1 as well as ATR kinase substrate Chk1 was examined by western blot. Cultured cells were pretreated with KU55933, siATM or DMSO control and later exposed to a DNA damaging reagent Camptothecin (CPT).
To detect phospho-proteins, 1× lysis buffer made of final concentration of 1× RIPA (Cell Signaling, #98016S), 1× protease inhibitor cocktail, 1× PhosSTOP™ (Roche, #4906845001) was added directly to cells on the dish after washing with cold 1× PBS. Protein concentration was measured with a BCA protein assay kit (Thermo, #23227). Typically 10 μg of protein from each sample was applied to SDS-PAGE gels, 4-15% Mini-PROTEAN TGX™ gels (Biorad, #456-1084), and transferred to nitrocellulose membranes in transfer buffer. […] Band intensities were quantified using the Odyssey™ software (LI-COR) and normalized to Actin levels. […]

[2] = system: SL13 cells; test: Telomere length by Southern blot in continuously growing SL13 cells; assay type: cell-based, mouse
Description: Given that ATM inhibitor KU55933 treatment prevents telomere elongation by telomerase overexpression, whether KU55933 treatment shortens telomere lengths in continuously growing cells was tested. […] The distinct non-telomeric bands served as useful loading controls, confirming all lanes were equally loaded (FIG. 9B, pixel position 1 and 3).
Cell lines such as 293FT and HCT116 were grown in DMEM (Gibco) supplemented with 1% Penicillin/Streptomycin/Glutamine (PSG) and 10% heat inactivated FBS (Invitrogen). SL13 cells were grown in DMEM (Gibco) supplemented with 1% PSG and 10% Tet system approved FBS (Clontech, #631107). Final concentration of 2 μg/ml of doxycycline was added in the media to induce I-Sce1 expression. Typically cells were collected post 48 hours of doxcycline treatment. […]
To measure telomere lengths by Southern blot, genomic DNA was extracted from cell pellets collected at different population doublings using the Puregene Core Kit A™ (Qiagen). […] Labeled probe was counted and 10^6 counts/ml (telomere probe) or 10^4 counts/ml (ladder) was denatured at 100° C. for 5 minutes and added to the pre-hybridization solution and hybridized overnight at 65° C. Membranes were washed 3× 15 minutes each in 6× SSC and 1% SDS at 65° C., and 3× 15 minutes each in 1× SSC and 1% SDS at 65° C. and exposed to a phosphorimager screen and detected on a Fuji phosphorimager. […]

Row | SMILES | Kap1-S824 phosphorylation ([1]; pretreated, later exposed to Camptothecin (CPT), western blot) | telomere lengths at various population doublings ([2]; SL13 cells, 10 μM KU55933) | increased level of Kap1 phosphorylation compared to DMSO-treated control cells ([1]; Olaparib treated cells) | telomere length at various PDs ([2]; SL13 cells grown in the presence of Olaparib, Southern blot)
1 | O=c1cc(-c2cccc3c2Sc2ccccc2S3)oc(N2CCOCC2)c1 [KU55933] | blocked Kap1 phosphorylation | gradually shortened with increasing cell PDs |  | 
2 | O=C(c1cc(Cc2n[nH]c(=O)c3ccccc23)ccc1F)N1CCN(C(=O)C2CC2)CC1 [Olaparib] |  |  | 5 fold | gradually increased after 25 PDs

Reference: patent publication US11156599B2, “Assay for telomere length regulators” (The Johns Hopkins University, priority 2015, dated 2021)
